The text below walks through data of patent publication US20040254094A1, “Suppression of cyclin kinase activity for prevention and treatment of infections” (priority 2000, published 2004).

Read-outs that look alike come from different tables or passages of the source. Where only a bound is given, the exact number is not on record here.

One series deals with CDK1/cyclin B. Particulars: cited from earlier work.
In another series the test system is Human Cytomegalovirus. Kind of series: Infectious HCMV yield by plaque assay from infected density-arrested LU cells. The format is cell-based, Human cytomegalovirus strain AD169. Particulars: for inhibition at 3.3 µM / inhibition at 10 µM / inhibition at 33 µM / inhibition at 100 µM: Human betaherpesvirus 5, 96 h.
The next series deals with non-infected LU cells. Kind of series: Hematoxylin and eosin staining of non-infected LU cells. Particulars: 15 μM for 96 hr. The class given is cell-based, human.
The nature of series [1]: Tolerated dose in animals. The class given is in vivo. Particulars: printed 'tolerated by rate'. An excerpt: The preferred dosage of CDK inhibitor in a parenteral administration may vary, depending upon the extent of the virus infection, the severity of the symptoms associated with the infection and patient age, weight and medical history. The number of administrations of the parenteral composition of the CDK inhibitor will also vary according to the response of the individual patient to the treatment. In one exemplary application, the dosage of CDK inhibitor may vary with the type of disease and the route of administration. Further studies with animal models of infection will completely define projected doses. […] Weaker CDK2 inhibitors will be needed at higher concentrations, and stronger, at lower.

The test system of series [2] is HCMV. As to the kind of experiment: HCMV DNA abundance by slot blot hybridization in infected density-arrested LU cells. The class given is cell-based, Human cytomegalovirus strain AD169. Particulars: 72 hr post-infection.
Another series relates to HCMV-infected LU cells. As to the kind of experiment: Hematoxylin and eosin staining of HCMV-infected LU cells.
The test system of the next series is human lung fibroblasts. Particulars: 100 μg/ml (0.75 mM); cited from earlier work.
Series [3] relates to HCMV. Kind of series: Viral late antigen pp28 expression by immunofluorescence in HCMV-infected LU cells. Particulars: between 24 and 96 hr after infection in the presence of PAA. The format is cell-based, Human cytomegalovirus. The method, then: Cells were cultured on sterile glass coverslips. The cells were washed three times in PBS and fixed in acetone:methanol (1:1) at −20° C. for 10 min. The permeabilized cells were incubated with primary antibody diluted in PBS for 1 hr at 37° C. in a humidified chamber. […] The excess conjugate was removed by washing the cells in PBS for 30 min. After drying, the cells were mounted in PBS/glycerol (1:1) and examined with the aid of a Zeiss Photomicroscope III using a 40/1.0 Neofluar lens. Images were photographed on slide film.

Another series concerns LU cells. Particulars: within 24 hr after serum in the presence of PAA (about 68% without inhibitor).
Series [4] concerns HCMV-infected subconfluent LU cells. As to the kind of experiment: Cell cycle distribution (DNA content, flow cytometry) following HCMV infection of subconfluent LU cells. Particulars: for Percent cells in phase G0/G1 / Percent cells in phase G2/M / Percent cells in phase S: HCMV 5 PFU/cell + PAA 100 μg/ml, mean (SD). A general note: A flow cytometer gives signals particle by particle.
Method: The DNA content of serum-arrested, HCMV-infected, subconfluent LU cells was analyzed by flow cytometry to determine to what extent productively infected cells initiate DNA synthesis.
Next, the DNA content of LU cells as a function of time after HCMV infection of subconfluent cells in the presence of PAA was analyzed.

[5] abbreviates: 3.3 μM, harvested 96 hrs, read-out: Percent inhibition of HCMV infectious yields.
Where [6] appears, read: 10 μM (third line of each group), harvested 96 hrs, read-out: Percent inhibition of HCMV infectious yields.
The mark [7] stands for this setting: 10 μM, harvested 96 hrs, read-out: Percent inhibition of HCMV infectious yields.
[8] abbreviates: 33 μM, harvested 96 hrs, read-out: Percent inhibition of HCMV infectious yields.
[9] abbreviates: 100 μM, harvested 96 hrs, read-out: Percent inhibition of HCMV infectious yields.
Setting [10] is: read-out: Percent inhibition of HCMV infectious yields, 3.3 μM, harvested 96 hrs.
Setting [11] is: read-out: Percent inhibition of HCMV infectious yields, 10 μM (third line of each group), harvested 96 hrs.
Setting [12] is: read-out: Percent inhibition of HCMV infectious yields, 10 μM, harvested 96 hrs.
[13] abbreviates: read-out: Percent inhibition of HCMV infectious yields, 33 μM, harvested 96 hrs.
Setting [14] is: read-out: Percent inhibition of HCMV infectious yields, 100 μM, harvested 96 hrs.
[15] abbreviates: 10 μM (third line of each group), harvested 96 hrs.

As a reminder, the IC50 is the midpoint of a concentration-inhibition curve. As for `CC(C)=CCNc1ncnc2nc[nH]c12` [Isopentenyladenine], the IC50 in the series with CDK1/cyclin B is 55 µM.
What is called inhibition is the relative decrease from the control value, in per cent. In the case of `CN1CC[C@H](c2c(O)cc(O)c3c(=O)cc(-c4ccccc4Cl)oc23)[C@H](O)C1` [Flavopiridol], in the series on Human Cytomegalovirus (setting [5]), the inhibition at 3.3 µM is 100%. Besides, the inhibition at 10 µM in the series on Human Cytomegalovirus (setting [6]) and in the series on Human Cytomegalovirus (setting [7]) was 100% throughout. Also, the inhibition at 33 µM in the series on Human Cytomegalovirus (setting [8]) is 100%. Further, the inhibition at 100 µM in the series on Human Cytomegalovirus (setting [9]) came to 100%.
For the compound `N#Cc1cn([C@@H]2O[C@H](CO)[C@@H](O)[C@H]2O)c2ncnc(N)c12` [Toyocamycin], the IC50 with CDK1/cyclin B is 0.88 µM.
`CC(C)[C@H](CO)Nc1nc(Nc2cc(N)cc(Cl)c2)c2ncn(C(C)C)c2n1` [NG97, aminopurvalanol]: the inhibition at 3.3 µM in the series with Human Cytomegalovirus (setting [5]) is 99.9%. Also, the inhibition at 10 µM in the series with Human Cytomegalovirus (setting [6]) was 100%; in the series with Human Cytomegalovirus (setting [7]) it was 51.3%. In the series with Human Cytomegalovirus (setting [8]), the inhibition at 33 µM was found to be 100%. The inhibition at 100 µM with Human Cytomegalovirus (setting [9]) stood at 100%.
In the case of `Cc1ccc(C(=O)Nc2ccc(S(=O)(=O)O)c3cc(S(=O)(=O)O)cc(S(=O)(=O)O)c23)cc1NC(=O)c1cccc(NC(=O)Nc2cccc(C(=O)Nc3cc(C(=O)Nc4ccc(S(=O)(=O)O)c5cc(S(=O)(=O)O)cc(S(=O)(=O)O)c45)ccc3C)c2)c1` [Suramin], in the series with CDK1/cyclin B, the IC50 is 4 µM.
With `CC[C@H](CO)Nc1nc(NCc2ccccc2)c2ncn(C(C)C)c2n1` [Roscovitine], the “morphological changes of non-infected cells” value in the series with non-infected LU cells is on record as “no morphological changes”. In addition, the “Infectious HCMV yields reduced by” value in the series on Human Cytomegalovirus (2.5 μM, 96 hr post-infection) is recorded as greater than 90%. For the same compound, the inhibition at 3.3 µM in the series with Human Cytomegalovirus (setting [10]) turned out to be 90.7%. Also, the inhibition at 10 µM was 96.5% in the series on Human Cytomegalovirus (setting [11]); 91.3% in the series with Human Cytomegalovirus (setting [12]); greater than 99.9% in the series on Human Cytomegalovirus (read-out: inhibition of infectious HCMV yields, 10 μM, 96 hr post-infection). Moreover, in the series on Human Cytomegalovirus (setting [13]), the inhibition at 33 µM came to 100%. Further, the inhibition at 100 µM with Human Cytomegalovirus (setting [14]) is greater than 100%. For the same compound, the tolerated dose in series [1] stood at 3 µg/kg. Moreover, the “HCMV DNA abundance reduced by” value in the series on HCMV [2] (1 μM) is recorded as roughly 50%. The “viral DNA abundance reduced by” value in the series on HCMV [2] (10 μM) is recorded as greater than 90%. In addition, the “morphology of HCMV-infected cells” value is “rounded and appeared to be undergoing cell death” in the series on HCMV-infected LU cells (5 μM, 96 hr post-infection); “clearly dying or dead” in the series on HCMV-infected LU cells (15 μM, 96 hr after infection).
As to `O=C(O)CP(=O)(O)O` [PAA, phosphonoacetic acid], the “viral DNA replication” value with human lung fibroblasts is reported as “blocks viral DNA replication”. Besides, in the series on HCMV [3], the pp28 expression result was “could not be detected”. In addition, in the series on LU cells, the “cells in S, G2, or M phase” value is “about 57%”. The “Percent cells in phase G0/G1” value in [4] (0 hrs after treatment) is 93.3 (1.2) %; in [4] (24 hrs), 97.2 (0.4) %; in series [4] (48 hrs) it was 97.1 (0.8) %; in series [4] (72 hrs) it was 97.2 (0.3) %. In addition, the “Percent cells in phase G2/M” value in [4] (0 hrs after treatment) is recorded as 5.1 (1.0) %; in series [4] (24 hrs), 1.9 (0.3) %; in [4] (48 hrs), 1.3 (0.4) %; in series [4] (72 hrs), 0.9 (0.1) %. The “Percent cells in phase S” value in [4] (0 hrs after treatment) is 1.6 (0.2) %; in series [4] (24 hrs) it was 0.9 (0.1) %; in series [4] (48 hrs) it was 1.5 (0.4) %; in [4] (72 hrs), 1.9 (0.3) %. Further, the “DNA content of LU cells after HCMV infection in the presence of PAA” value in series [4] (subconfluent cells) is “no detectable increase in DNA content”.
In the case of Purvalanol A&B, the IC50 with CDK1/cyclin B was 0.004 µM.
With `COc1ccc(CNc2nc(N(CCO)CCO)nc3c2ncn3C(C)C)cc1` [CVT-313], the IC50 in the series with CDK1/cyclin B was 4.2 µM.
As for `O=C1Cc2c([nH]c3ccc([N+](=O)[O-])cc23)-c2ccccc2N1` [Alsterpaullone], the inhibition at 3.3 µM with Human Cytomegalovirus (setting [10]) worked out at 100%. Moreover, the inhibition at 10 µM in the series with Human Cytomegalovirus (setting [11]) and with Human Cytomegalovirus (setting [12]) was 100% in each case. Besides, the inhibition at 33 µM in the series with Human Cytomegalovirus (setting [13]) stood at 100%. The inhibition at 100 µM in the series on Human Cytomegalovirus (setting [14]) amounted to 100%.
Regarding `O=C1CCCO1` [γ-Butyrolactone], the IC50 in the series on CDK1/cyclin B is 0.6 µM.
As to `CN[C@@H]1C[C@H]2O[C@@](C)([C@@H]1OC)n1c3ccccc3c3c4c(c5c6ccccc6n2c5c31)C(=O)NC4` [Staurosporine], in the series on CDK1/cyclin B, the half-maximal inhibitory concentration (IC50) is 0.004 µM.
Regarding `CCCCc1c(-c2ccc(O)cc2)[nH]c2nccnc12` [RP107], the “Percent inhibition of HCMV infectious yields” value in the series with Human Cytomegalovirus (3.3 μM, harvested 96 hrs) is 96.67%; in the series on Human Cytomegalovirus (setting [15]), 99.98%; with Human Cytomegalovirus (10 μM, harvested 96 hrs), 74.67%; in the series on Human Cytomegalovirus (33 μM, harvested 96 hrs), 99.9968%; in the series with Human Cytomegalovirus (100 μM, harvested 96 hrs), 99.9984%.
As to Indirubin-3′-monoxime, the concentration for half-maximal inhibition (IC50) in the series with CDK1/cyclin B was 0.18 µM. In addition, the “Percent inhibition of HCMV infectious yields” value in the series with Human Cytomegalovirus (3.3 μM, harvested 96 hrs) was determined as 56.69%; in the series on Human Cytomegalovirus (setting [15]), 99.9988%; in the series with Human Cytomegalovirus (10 μM, harvested 96 hrs), 26.67%; with Human Cytomegalovirus (33 μM, harvested 96 hrs), 99.9976%; in the series on Human Cytomegalovirus (100 μM, harvested 96 hrs), 99.9992%.
Turning to `CN(C)c1ncnc2nc[nH]c12` [6-Dimethylaminopurine], in the series with CDK1/cyclin B, the IC50 was 120 µM.
As for `OCCCNc1cc(-c2ccnc(Nc3cccc(Cl)c3)n2)ccn1` [CGP60474], the IC50 with CDK1/cyclin B is 0.02 µM.
Consider `Cc1c2ccncc2c(C)c2c1[nH]c1ccc(O)cc12` [9-hydroxyellipticine], for which, in the series on CDK1/cyclin B, the IC50 is 1 µM.
